Reference: patent US8031338B2, “Measuring Forster resonance energy transfer with polarized and depolarized light” (Vanderbilt University, priority 2004, dated 2011)

Tests used:
[1] = system: COS-7 cells expressing SCAT3.1 (caspase-3 cleavage site); details: COS-7 cells expressing SCAT3.1, 96-well plate; 10 μM H2O2 for 90 min; FIG. 6D
[2] = system: COS-7 cells expressing SCAT3.1 (caspase-3 cleavage site); test: A-FRET microscopy of SCAT 3.1 apoptosis sensor cleavage in live cells; assay type: cell-based; details: COS-7 cells transfected with SCAT 3.1; imaged immediately after treatment and after 5 hours; FIG. 6A-C
Description: Sample Preparation. Beads from a 5 ml HiTRAP chelating HP column (Amersham Biosciences) were charged using a 0.1M NiSO (Rizzo and Piston, 2005) solution and washed with 50 mM TrisHCl. The beads were then labeled as described (Youvan et al., 1997) with purified mCerulean, mVenus, or a linker protein containing mVenus and mCerulean separated by the linker sequence […]. Histadine-tagged recombinant protein was bacterially expressed and purified as previously described (Rizzo et al., 2004). For living cell studies, plasmid DNA encoding FP constructs were introduced was into COS-7 cells using FUGENE (Roche) transfection reagent according to the manufacturer's instructions. […]
Fluorescence Imaging. […] Fluorescence emission was filtered through a 515-540 nm bandpass filter and 2 mm BGG22 glass prior to separation vertical and horizontal polarizations with a broadband polarizing cube beam splitter (Newport). […]
To test the ability of this approach to measure FRET changes in a live cell based assay, COS-7 cells were transfected with the apoptosis sensor, SCAT 3.1 (Nagai and Miyawaki, 2004), which consists of cyan and yellow FPs separated by a caspase-3 cleavage site (FIG. 6A). […] SCAT 3.1 cleavage was also monitored in cells grown on a 96-well plate. […] The use of an intrinsic parameter, such as anisotropy, enables absolute threshold values to be determined for occurrence of FRET during an assay. […]

Structure (SMILES)	overall anisotropy in the yellow emission channel, indicating caspase-3 activation [1]	emission in the yellow FP channel (polarization) following induction of apoptosis [2]
OO [hydrogen peroxide]	increase in the overall anisotropy	
CN[C@@H]1C[C@H]2O[C@@](C)([C@@H]1OC)n1c3ccccc3c3c4c(c5c6ccccc6n2c5c31)C(=O)NC4 [staurosporine]		changes from highly depolarized fluorescence to highly polarized fluorescence
